Assay: Solubility of the sunscreen active in the preferred non-polar solvents
Assay type: physicochemical
Details: ethylferulate by itself, without lubricating wax as cosolvent
From the text: Thus, this embodiment of the present invention solves a significant problem which the prior art has heretofore been unable to overcome without emulsification, namely, the poor solubility of ethylferulate and other polar solid organic sunscreen actives in non-polar solvents, which causes difficulties in formulating sunscreen products in non-emulsified systems.

solubility in the preferred solvents: not soluble to any significant extent
SMILES: CCOC(=O)/C=C/c1ccc(O)c(OC)c1 [ethylferulate, ethyl ester of ferulic acid]

Reference: patent publication US20010055573A1, “Delivery systems for active ingredients including sunscreen actives and methods of making same” (Shamrock Technologies, priority 1999, published 2001)
